Consider three compounds from PMC8998031, “A Boronated Derivative of Temozolomide Showing Enhanced Efficacy in Boron Neutron Capture Therapy of Glioblastoma” (Cells, 2022).

The subject of data set [1] is HS683 cells. The data set can be described thus: Clonogenic cell survival assay with BNCT (neutron irradiation). The data set is classed as cell-based, Human. Particulars: total neutron fluence 2.4 ± 0.3 × 10^11 n/cm^2. The procedure: HS683 cells were prepared in a 200 μL centrifuge tube and treated with BPA or TMZB at gradient concentrations in 0.0–1.0 μg/mL for 30 min. Cells were irradiated with epithermal neutrons for approximately 30 min to achieve total neutron fluence at 2.4 ± 0.3 × 10^11 n/cm^2. After radiation, the drug-containing medium was removed, and cells were incubated in fresh medium for 12 h. A certain number of cells in a single-cell suspension were seeded into 6-well plates to grow colonies. After 2 weeks of incubation, colonies were fixed with 70% ethanol at room temperature for 10 min, stained with 0.1% crystal violet, and then dried overnight. Colonies with more than 50 cells were scored as clonogenic survivors under a bright field microscope.

Data set [2] deals with HS683 cells. The data set can be described thus: Clonogenic cell survival assay without BNCT. The class given is cell-based, Human.
Data set [3] relates to HS683 cells. Kind of data set: CCK8 cell proliferation assay. The class given is cell-based, Human. Particulars: read-out: IC50 (cell viability, CCK8). The procedure:
Cell proliferation was measured with a CCK8 assay following the manufacturer’s protocol (Dojindo Molecular Technologies, Inc., Kumamoto, Japan). The IC50 was calculated using Prism software using the following algorithm: Cell Viability=100/1+10^(LogIC50−Concentration)×Hillslope

Data set [4] concerns HS683 cells. The data set can be described thus: Boron uptake in HS683 cells (ICP-AES). The class given is cell-based, Human. Particulars: series of concentrations, 12 h. The procedure:
(§1) Human GBM cells U87MG, U251, and HS683 and endothelial cell HUV-EC were obtained from the National Infrastructure of Cell Line Resource in Beijing, China. Cell lines were authenticated at the National Infrastructure of Cell Line Resource, Beijing, China. GBM cells were cultured in a DMEM medium containing 10% fetal bovine serum and 1% penicillin/streptomycin at 5% CO2 and 37 °C. HUV-EC cells were cultured in complete culture medium (Procell Life Science & Technology Co., Ltd., Wuhan, China). Cells were tested mycoplasma free using a Mycoplasma Test Kit (Cellorlab, China). All materials for cell culture were purchased from Gibco Invitrogen (Grand Island, NY, USA) unless otherwise noted.
(§2) TMZB (molecular weight, 412.21) and BPA (209.01; obtained from HEC Pharm, Dongguan, China) were made into 0.0–1.0 mg/g aqueous solutions. GBM cells and HUV-EC cells were treated with different concentrations of TMZB or BPA solutions. The drug-containing medium was removed 12 h later. The biodistribution of boron in TMZB- or BPA-treated mice was measured at the timepoint for neutron irradiation, i.e., 2 h after drug injection. Eight nude mice in each group were injected with 500 mg/kg of BPA, TMZ, or TMZB through the tail vein of the nude mice, in a 3,5-tetrazine-8-methoxy-4-phenylboronic acid-ethyl ester solution. […]

The nature of data set [5]: In vivo boron distribution in GBM mouse model (ICP-AES). Details: species or system nude mice. Particulars: 50 mg 10B/kg. The procedure: (§3) Single-cell suspension with HS683 cells was prepared at 2 × 10^7 cells/mL. Nude mice were anesthetized with an intraperitoneal injection of tribromoethanol at a dose of 150 mg/kg and positioned in a stereotaxic instrument. After disinfection with 75% alcohol, the scalp was cut open with a scalpel, the bregma point was selected, and a hole was made in the mouse skull using a 1 mm cranial drill. Then, 5 μL of cell suspension was taken using a micro-injector, which was then fixed on the brain with a needle depth at 3.0 mm using a stereotaxic instrument. Three minutes later, the micro-injector was lifted by 0.5 mm to make rooms for the injection of cells at 1 μL/min. After removing the needle, the drill hole in the mice skull was then filled with bone wax, the skin incision was sutured, and the wound was disinfected with iodophor. The GBM model was established approximately 28 days after cell injection.
TMZB (molecular weight, 412.21) and BPA (209.01; obtained from HEC Pharm, Dongguan, China) were made into 0.0–1.0 mg/g aqueous solutions. GBM cells and HUV-EC cells were treated with different concentrations of TMZB or BPA solutions. The drug-containing medium was removed 12 h later. […] Eight nude mice in each group were injected with 500 mg/kg of BPA, TMZ, or TMZB through the tail vein of the nude mice, in a 3,5-tetrazine-8-methoxy-4-phenylboronic acid-ethyl ester solution. […] Cells or tissues were digested with concentrated nitric acid for the analysis of boron concentration via ICP-AES.

For another data set, the system named is HS683 GBM mouse model. The data set can be described thus: In vivo BNCT test, PET/CT imaging with 18F-FDG. Details: species or system nude mice. The procedure: as §3
PET/CT imaging with 1.5 uCi/g ^18F-FDG was performed for all the mice anesthetized with 2% isoflurane at 25 °C before BNCT. Mice were anesthetized with an intraperitoneal injection of tribromoethanol at a dose of 150 mg/kg. The mice were then injected i.v. with 50 mg ^10B/kg of BPA (5% fructose solution) or the TMZB solution at 50 mg ^10B/kg or TMZ at 600 mg/kg through the tail vein. Then, 90 min later, mice were fixed in the mold and anesthetized for BNCT. Mice heads were treated with 2 kw of neutron fluence for 2 h each time and 4 times for each mouse with 2 days interval in between, to achieve a total neutron fluence of 16.5 ± 0.3 × 10^11 n/cm^2. Boron compounds were injected prior to each of the radiation fractions. PET/CT imaging was performed again 31 days after BNCT. Three-dimensional reconstructions of the PET/CT images were performed using AMIDE (Stanford University, Stanford, CA, USA). ROI, SUV values, and tumor volume were then analyzed.

The subject of a further data set is U251 cells. Kind of data set: Boron uptake in U251 cells (ICP-AES). The class given is cell-based, Human. Particulars: exposure of 1.99 mM BPA, 12 h. The procedure: as §1, §2

Broadly, the IC50 is the concentration that inhibits the measured activity by half. With `Cn1nnc2c(C(N)=O)ncn2c1=O` [TMZ, temozolomide], the “clonogenic cell death after BNCT” value with HS683 cells [1] (HS683, 0.258 mM TMZ) is 47.9% ± 6.6. Also, the IC50 in the data set on HS683 cells [2] (Homo sapiens, Hs 683) turned out to be 213 µM; with HS683 cells [3] (Homo sapiens, Hs 683, without BNCT), 284 µM.
Take `N[C@@H](Cc1ccc(B(O)O)cc1)C(=O)O` [BPA, boronated phenylalanine]: the 50% inhibitory concentration (IC50) came out at 2310 µM in the data set with HS683 cells [2] and 1110 µM in the data set on HS683 cells [3] (without BNCT).
Consider `N[C@@H](Cc1ccc([10B](O)O)cc1)C(=O)O` [BPA, boronated phenylalanine], for which the “clonogenic cell death after BNCT” value in the data set with HS683 cells [1] (HS683, 0.239 mM BPA) was 63.7% ± 6.3. Further, in the data set on HS683 cells [4], the “boron uptake (in words)” value is reported as “low uptake”. Moreover, the “tissue of main boron accumulation” value in data set [5] (2 h after administration) was “mainly accumulates in the kidney”. For the same compound, the results for the “boron concentration in mice tumors” value in data set [5] (2 h after i.v. administration) and in data set [5] (6 h after i.v. administration) were 16.93 ± 9.75 μg B/g and 5.07 ± 1.43 μg B/g, respectively. The “tumor-to-blood ratio (T/B) of boron concentrations” value in data set [5] (GBM mouse model) is listed as 2.26 ± 1.56. Also, the “tumor-to-normal brain ratio (T/N) of boron concentrations” value in data set [5] (GBM mouse model) came out at 2.61 ± 1.98. For the same compound, the “SUV max after BNCT” value in the data set on HS683 GBM mouse model (31 days after BNCT, 50 mg 10B/kg, 18F-FDG PET/CT) was “significantly reduced”. Besides, the “18F-FDG uptake in tumors after BNCT” value with HS683 GBM mouse model (31 days after BNCT, compared with TMZ-treated group) is on record as “significantly lower than that in the TMZ-treated group”. In the data set on HS683 GBM mouse model (31 days after neutron irradiation, 50 mg 10B/kg i.v., total neutron fluence 16.5 ± 0.3 × 10^11 n/cm^2, PET/CT), the “tumor volume decrease (tumor shrinkage) after BNCT” value was found to be 35.2%. This compound also displayed a boron uptake with U251 cells of 0.126 μg/10^6 cells.
